Laboratory results published in paper PMC10945332, “Precision peptide theranostics: developing N- to C-terminus optimized theranostics targeting cholecystokinin-2 receptor” (Theranostics, 2024).
Like-named read-outs stand apart in the source and are kept apart here. Each block holds one compound with its values, some of them ahead of it. Where a SMILES comes first, the peptide text is derived from it. [ ]: non-standard residue; d: D form. The star is where a group is joined. DOTA = O=C(O)CN1CCN(CC(=O)O)CCN(CC(=O)*)CCN(CC(=O)O)CC1; 1Nal = N[C@@H](Cc1cccc2ccccc12)C(=O)O; NMeNle = CCCC[C@H](NC)C(=O)O; Sar = CNCC(=O)O

What was measured:
[1] = format: physicochemical
Protocol: Lipophilicity, expressed as the octanol-water partition coefficient, constitutes an important property in drug action, influencing both pharmacokinetic and pharmacodynamics processes. The distribution coefficient (LogD7.4) of [^68Ga]Ga-DOTA-peptides was determined by measuring radioactivity distribution in the aqueous phase (phosphate buffer pH7.4) and the organic phase (n-octanol). […]
To determine the distribution coefficient (logD 7.4), 68Ga radiolabeled peptides [68Ga]Ga-DOTA-GA4, [68Ga]Ga-DOTA-GA7, and [68Ga]Ga-DOTA-GA11–GA13 were diluted to approximately 20 pmol/mL in PBS (pH 7.4) and an equal volume of n-octanol was added. The mixture was vortexed vigorously for 10 cycles of 1 min at room temperature before being centrifuged for 6 min to separate the two phases. Equal volumes from each phase were aliquoted into individual counting tubes and analysed for 1 min using the Perkin Elmer 2480 Wizard2™ gamma counter (PerkinElmer, Massachusetts, USA). The distribution coefficient was calculated using the following equation LogD = […]. […]

[2] = format: in vitro ADME, mouse; settings: mouse, tissue homogenate
Protocol: Metabolic stability is an important determinant of the efficacy of peptide radiopharmaceuticals and their progression as promising theranostic candidates. In vitro, metabolic degradation through hepatic and renal enzymes can be assessed by utilizing liver and kidney tissue homogenates. Radiolabeled peptides [^68Ga]Ga-DOTA-GA4, and D-Ala substituted variants [^68Ga]Ga-DOTA-GA7, [^68Ga]Ga-DOTA-GA11-GA13 were incubated in liver and kidney mouse homogenates, in human serum at 37°C, and in HEPES buffer (pH 7.4) as a negative control. Following a time course experiment, the metabolites were analyzed using HPLC to quantify the % breakdown of the respective parent peptide. […]
To assess the stability of 68Ga radiolabeled peptides against enzymatic degradation, duplicate samples (750-900 pmol/mL, 2-5MBq) were incubated at 37 ℃ with pooled human serum, 15% […]
mouse kidney homogenate, 30% mouse liver homogenate or 20 mM HEPES, pH 7.3 (control).
Human blood was collected, and serum prepared using SSTII advance vacutainer tubes according to the manufacturer’s instructions (Becton Dickinson, New Jersey, USA). Mouse kidney and liver homogenates were prepared by washing the tissues in ice-cold HEPES buffer, pH 7.3 and placing them in pre-chilled tubes containing HEPES buffer and 2.38 mm metal beads (Mo-Bio Laboratories, Hilden, Germany). Tissues were homogenised using the PowerLyzer24 homogeniser (Qiagen, Hilden, Germany) according to the manufacturer’s instructions. 68Ga radiolabeled peptides were then incubated with the various lysates at 37 ℃ and samples were collected at 15, 30, 60 and 90 min. Reactions were terminated by addition of an equal volume of acetonitrile and centrifugation for 2 min at 15,000 rpm. Supernatants were diluted in water before being analysed by HPLC using a Kinetex C18 XB column (5µm

[3] = mouse, in vivo
Protocol: (§1) In order to assess these promising ligands as potential theranostics, the library of [^68Ga]Ga-DOTA-peptides was evaluated using static small animal PET imaging and quantifying biodistribution studies. This study was performed to investigate tumor uptake as well as the accumulation of radioligands in other organs. Mice bearing A431-CCK2R tumors were imaged at 1- and 2 hours post tracer injection, and tracer biodistribution was evaluated at the 1 hour and 2.5 hour time points to quantify tumor uptake and retention. […]
(§2) Small Animal PET Imaging and Biodistribution Studies
(§3) Female NSG mice (age 11-14 weeks) were sourced from Animal Resources Centre, (Canning Vale, Western Australia) and were inoculated subcutaneously on the right flank with 1-3 x 106 […]
(§4) A431-CCK2R cells in PBS:Matrigel (1:1). […]
(§5) Mice were assigned to imaging and/or biodistribution groups (tumour volumes: 119-327 mm3).
(§6) The respective 68Ga labelled tracer (1.63–3.81 MBq, 170µL, 13.7–14.2 pmoles) containing vehicle solution (75µL, DMSO:Tween 80: water, 2:2:6 v/v/v) was then administered to mice intravenously via tail vein injection. Three mice were euthanized for biodistribution 1 hour post injection (n=3) and selected tissues were excised, weighed, and counted using a Capintec (Captus 4000e) gamma counter. Three mice were anaesthetised using 1.5% isoflurane and imaged at 1 hour (n=3) and 2 hours (n=3) with a G8 Small Animal PET/CT scanner (Perkin […]
(§7) Elmer/Sofie Biosciences). A 10 min static PET scan was acquired, followed immediately by a CT scan (Supplementary Data, pS51–S55). PET images were acquired using the G8 acquisition engine software and reconstructed using a 3D maximal likelihood and expectation maximization (ML-EM) algorithm. PET images were analysed using VivoQuant software, version 3.0 (inviCRO Imaging Services and Software) to quantify maximum standardised uptake value in regions of interest (SUVmax). Background regions for imaging experiments were calculated by quantitating mean standardised uptake value (SUVmean) of the abdomen and gut region. The region of interest was selected due to low uptake in abdomen/gut during imaging. After imaging the 2-hour time point, mice organs were harvested for biodistribution […]
(§8) For blocking CCK2R binding a solution of N-[(3R)-2,3-Dihydro-1-[2-(2-methylphenyl)-2-oxoethyl]-2-oxo-5-phenyl-1H-1,4-benzodiazepin-3-yl]-N′-(3-methylphenyl)-urea (YM022; Sigma Aldrich) was used. YM022 (75µL of a 1 mg/ml solution constituting DMSO:Tween 80: water, 2:2:6 v/v/v) was added to the respective 68Ga labelled tracer (1.41–3.61 MBq, 100 µL, 13.7–14.2 pmoles) and this mixture ([…]) was administered in three mice intravenously via tail vein injection and organs harvested at 1 hour post injection for biodistribution analysis, as above.
(§9) All animal experiments were performed with the approval of the Peter MacCallum Cancer Centre Animal Experimentation Ethics Committee and in accordance with the Australian code for the care and use of animals for scientific purposes, 8th Edition, 2013 (AEEC Approval

[4] = in vivo; settings: female, NSG, mouse, iv, total radioactivity
Protocol: as §1, §2, §3, §4, §5, §6, §7, §8, §9

[5] = target: T1, human CCK2R (Homo sapiens, UniProt P32239); assay: Competitive binding against [177Lu]Lu-DOTA-CP04 in A431-CCK2R cells; settings: for IC50: N-terminal free linear peptides, vs [177Lu]Lu-DOTA-CP04 in A431-CCK2R cells, average of 2-4 biological replicates, read-out: IC50
T1 construct: stably transfected to over-express the human full-length CCK2R (A431-CCK2R); expressed in transfected cells
T1 sequence (P32239 1-447): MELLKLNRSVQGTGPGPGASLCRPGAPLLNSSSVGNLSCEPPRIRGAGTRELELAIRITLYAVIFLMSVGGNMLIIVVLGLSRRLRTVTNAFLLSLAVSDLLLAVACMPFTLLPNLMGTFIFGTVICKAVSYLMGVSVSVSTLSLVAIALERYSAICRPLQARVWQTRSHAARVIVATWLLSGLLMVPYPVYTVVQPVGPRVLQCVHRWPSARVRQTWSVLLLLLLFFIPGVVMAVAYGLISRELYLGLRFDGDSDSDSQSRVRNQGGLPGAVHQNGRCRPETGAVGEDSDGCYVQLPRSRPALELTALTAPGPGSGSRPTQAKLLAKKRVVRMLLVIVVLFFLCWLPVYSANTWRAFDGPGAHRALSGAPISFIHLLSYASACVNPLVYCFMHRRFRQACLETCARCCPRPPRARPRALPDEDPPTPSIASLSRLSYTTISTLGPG
Protocol: Materials and Methods: Biology […]
In Vitro CCK2R-Ligand Competitive Binding Assays
All CCK2R binding experiments were conducted using A431 (human epidermoid carcinoma) […]
cells stably transfected to over-express the human full-length CCK2R (A431-CCK2R) (gifted […]
by Dr. Elisabeth von Guggenberg, Medizinische Universität Innsbruck).[41] As a negative […]
control, A431 cells stably transfected with an empty vector were analysed simultaneously […]
(A431-EV). All A431 cells were maintained in DMEM (Gibco, Australia) media supplemented […]
with 10% foetal calf serum and 250 µg/mL G418 as described previously.[32]
The affinity of all peptides for the CCK2R was evaluated using competitive binding assays […]
Briefly, 48 hours before the experiment […]
cells were plated at a density of 300,000 cells per well in 12 well plates. On the day of the […]
experiment, linear peptides were diluted in DMEM supplemented with 1% foetal calf serum to […]
DOTA-CP04 was added to each dilution. Cells were washed twice in ice-cold binding buffer […]
(DMEM supplemented with 1% foetal calf serum) and resuspended in 1 mL of the pre-prepared […]
peptide mix before being incubated at room temperature for 1 hour. Post-incubation the media […]
was removed and kept for analysis (unbound fraction) and the cells were washed twice in ice- […]
cold PBS which was pooled with the unbound fraction. Finally, 1 M NaOH (150µL) was added […]
to the wells and allowed to incubate for 5 min before lysates were collected (bound fraction).
A small volume of lysate was kept aside to determine protein concentration using the Pierce® BCA protein assay kit (Thermo Fisher, Australia). All samples were analysed using the Perkin […]
normalised according to protein concentration. Half maximal inhibitory concentration (IC50) was determined using nonlinear regression calculated using Gr aphPad Prism Software (GraphPad Software, California, USA). […]

logD [1]: -4.06 ± 0.14 | Half-life (t1/2) in Kidney Homogenate [2]: 46.33 min | Half-life (t1/2) in Liver Homogenate [2]: 64.28 min | half-life ([2]; Half-life (t1/2) in Kidney Homogenate): 46.3 min | half-life ([2]; Half-life (t1/2) in Liver Homogenate): 64.3 min | tissue uptake at 1 h ([3]; 3 mg/kg, Uptake in A431-CCK2R Tumors, 1 hr Blocked): 2.53 ± 0.11 %ID/g | tissue uptake at 1 h ([3]; Uptake in A431-CCK2R Tumors, 1 hr): 6.7 ± 0.69 %ID/g | tissue uptake at 2.5 h ([3]; Uptake in A431-CCK2R Tumors, 2.5 hr): 6.81 ± 1.4 %ID/g | tissue uptake at 1 h ([3]; Uptake in Organs: Blood): 0.29 ± 0.01 %ID/g | tissue uptake at 1 h ([3]; Uptake in Organs: Heart): 0.14 ± 0.01 %ID/g | tissue uptake at 1 h ([3]; Uptake in Organs: Kidneys): 4.52 ± 0.38 %ID/g | tissue uptake at 1 h ([3]; Uptake in Organs: Liver): 0.19 ± 0.02 %ID/g | tissue uptake at 1 h ([3]; Uptake in Organs: Lungs): 0.34 ± 0.04 %ID/g | tissue uptake at 1 h ([3]; Uptake in Organs: Muscle): 0.09 ± 0.02 %ID/g | tissue uptake at 1 h ([3]; Uptake in Organs: Spleen): 0.25 ± 0.04 %ID/g | tissue uptake at 1 h ([3]; Uptake in Organs: Stomach): 1.38 ± 0.08 %ID/g | tissue to tissue ratio at 1 h [4]: 24.9 ± 4.57 | SUV at 1 h ([4]; SUVmax): 0.5 SUV | SUV at 2 h ([4]; SUVmax): 0.45 SUV
SMILES: CCCC[C@@H](C(=O)N[C@@H](CC(=O)O)C(=O)N[C@@H](Cc1ccccc1)C(N)=O)N(C)C(=O)[C@H](Cc1c[nH]c2ccccc12)NC(=O)CN(C)C(=O)[C@H](Cc1ccc(O)cc1)NC(=O)[C@H](C)NC(=O)[C@@H](CCC(=O)O)NC(=O)[C@@H](CCC(=O)O)NC(=O)[C@@H](CCC(=O)O)NC(=O)[C@@H](C)NC(=O)[C@@H](CCC(=O)O)NC(=O)[C@@H](CCC(=O)O)NC(=O)CN1CCN(CC(=O)O)CCN(CC(=O)O)CCN(CC(=O)O)CC1 [[^68Ga]Ga-DOTA-GA12, metal not drawn] ({DOTA}-[dE][dE][dA][dE][dE][dE]AY[Sar]W[NMeNle]DF-NH2)

IC50 [5]: 1.62 nM
SMILES: CCCC[C@@H](C(=O)N[C@@H](CC(=O)O)C(=O)N[C@@H](Cc1cccc2ccccc12)C(N)=O)N(C)C(=O)[C@H](Cc1c[nH]c2ccccc12)NC(=O)CN(C)C(=O)[C@H](Cc1ccc(O)cc1)NC(=O)[C@H](C)NC(=O)[C@@H](C)NC(=O)[C@@H](CCC(=O)O)NC(=O)[C@@H](CCC(=O)O)NC(=O)[C@@H](CCC(=O)O)NC(=O)[C@@H](CCC(=O)O)NC(=O)[C@H](N)CCC(=O)O [GA10] (H-[dE][dE][dE][dE][dE][dA]AY[Sar]W[NMeNle]D[1Nal]-NH2)

The next lines start with the compound.

SMILES: CCCC[C@@H](C(=O)N[C@@H](CC(=O)O)C(=O)N[C@@H](Cc1cccc2ccccc12)C(N)=O)N(C)C(=O)[C@H](Cc1c[nH]c2ccccc12)NC(=O)CN(C)C(=O)[C@H](Cc1ccc(O)cc1)NC(=O)[C@H](C)NC(=O)[C@@H](CCC(=O)O)NC(=O)[C@@H](CCC(=O)O)NC(=O)[C@@H](C)NC(=O)[C@@H](CCC(=O)O)NC(=O)[C@@H](CCC(=O)O)NC(=O)[C@H](N)CCC(=O)O [GA8] (H-[dE][dE][dE][dA][dE][dE]AY[Sar]W[NMeNle]D[1Nal]-NH2)
IC50 [5]: 1.62 nM

SMILES: CCCC[C@@H](C(=O)N[C@@H](CC(=O)O)C(=O)N[C@@H](Cc1cccc2ccccc12)C(N)=O)N(C)C(=O)[C@H](Cc1c[nH]c2ccccc12)NC(=O)CN(C)C(=O)[C@H](Cc1ccc(O)cc1)NC(=O)[C@H](C)NC(=O)[C@@H](CCC(=O)O)NC(=O)[C@@H](CCC(=O)O)NC(=O)[C@@H](CCC(=O)O)NC(=O)[C@@H](CCC(=O)O)NC(=O)[C@@H](C)NC(=O)[C@H](N)CCC(=O)O [GA6] (H-[dE][dA][dE][dE][dE][dE]AY[Sar]W[NMeNle]D[1Nal]-NH2)
IC50 [5]: 1.23 nM

SMILES: CCCC[C@@H](C(=O)N[C@@H](CC(=O)O)C(=O)N[C@@H](Cc1cccc2ccccc12)C(N)=O)N(C)C(=O)[C@H](Cc1c[nH]c2ccccc12)NC(=O)CN(C)C(=O)[C@H](Cc1ccc(O)cc1)NC(=O)[C@H](C)NC(=O)[C@@H](CCC(=O)O)NC(=O)[C@@H](CCC(=O)O)NC(=O)[C@@H](CCC(=O)O)NC(=O)[C@@H](C)NC(=O)[C@@H](CCC(=O)O)NC(=O)[C@H](N)CCC(=O)O [GA7] (H-[dE][dE][dA][dE][dE][dE]AY[Sar]W[NMeNle]D[1Nal]-NH2)
IC50 [5]: 0.184 nM | fold improvement of activity over CP04 ([5]; linear peptides): greater than 10 fold | fold improvement of affinity over GA1 ([5]; linear peptides): ~2 fold
